Laboratory results from publication PMC9897788, “Design, synthesis and cytotoxic evaluation of novel bis-thiazole derivatives as preferential Pim1 kinase inhibitors with in vivo and in silico study” (Journal of Enzyme Inhibition and Medicinal Chemistry, 2023).

What was measured:
[1] = molecular target: Pim2 kinase (Homo sapiens, UniProt Q9P1W9); assay: In vitro Pim2 kinase inhibition assay (ADP-Glo); type: biochemical; conditions: n = 3
[2] = Solubility in DMSO (NMR observation); type: physicochemical; conditions: noticed from weak NMR signals

Chain of Pim2 kinase (Q9P1W9 whole entry): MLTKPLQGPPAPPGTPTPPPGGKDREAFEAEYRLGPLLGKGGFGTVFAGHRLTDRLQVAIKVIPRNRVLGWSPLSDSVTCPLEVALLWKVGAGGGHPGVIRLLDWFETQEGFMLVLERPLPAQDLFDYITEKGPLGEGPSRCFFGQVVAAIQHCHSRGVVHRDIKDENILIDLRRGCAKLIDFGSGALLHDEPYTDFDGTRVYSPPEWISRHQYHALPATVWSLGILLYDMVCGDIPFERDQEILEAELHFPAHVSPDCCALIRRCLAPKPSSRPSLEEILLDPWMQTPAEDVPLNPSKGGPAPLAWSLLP

Structure (SMILES)	IC50 [1]	solubility in DMSO [2]
Fc1ccc(-c2cs/c(=N\c3ccccc3)n2-c2cccc(-n3c(-c4ccc(F)cc4)cs/c3=N\c3ccccc3)c2)cc1 [8b, N,N’-(3,3’-(1,3-phenylene)bis(4–(4-fluorophenyl)thiazole-3(3H)-yl-2(3H)-ylidene))dianiline]	10.5 µM	–
CC(=O)c1sc(Nc2cccc(Nc3nc(C)c(C(C)=O)s3)c2)nc1C [3b, 1,1’-(2,2’-(1,3-Phenylenebis(azanediyl))bis(4-methylthiazole-5,2-diyl))diethanone]	6.05 µM	–
Cc1nc(Nc2cccc(Nc3nc(C)c(N=Nc4ccccc4)s3)c2)sc1N=Nc1ccccc1 [5a, N^1,N^3-bis(4-methyl-5-(phenyldiazenyl)thiazol-2-yl)benzene-1,3-diamine]	–	poor solubility in DMSO
